Data as given in patent US20250074901A1, “NOVEL HETEROARYL COMPOUNDS” (ICAGEN, LLC, priority 2021, published 2025).

Target: T1, Kv7.2 (Homo sapiens, UniProt O43526)
T1 construct: expressed in transfected cells
Test: Activation of Kv7.2 (in vitro assay, concentration response curve)
Assay type: cell-based
Details: for Emax: Kv7.2 activation max %; for EC50: activation of Kv7.2
How it was run: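 EC50 is the half-maximal effective concentration, relative to the Emax observed for each compound in this in vitro assay. It was derived from concentration–response curves of the agonistic effect measured over a series of concentrations.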

Row | SMILES | Emax [%] | EC50 [nM]
1 | C[C@@H](F)COc1cc(CNC(=O)NC23CCC(F)(CC2)CC3)ccn1 [Example 151, 1-(4-fluoro-1-bicyclo[2.2.2]octanyl)-3-[[2-[(2R)-2-fluoropropoxy]pyridin-4-yl]methyl]urea] | 42 | 650
2 | O=C(NCc1ccnc(OC(F)F)c1)N[C@@H]1CC[C@@H](C(F)(F)F)C1 (single isomer, unassigned) [Example 206] | 75 | 490
3 | O=C(NC(CO)c1ccnc(OC(F)F)c1)N[C@H]1C[C@H](C(F)(F)F)C1 (some centres unmarked) [Example 91, 1-[1-[2-(difluoromethoxy)pyridin-4-yl]-2-hydroxyethyl]-3-[(1r,3r)-3-(trifluoromethyl)cyclobutyl]urea] | 82 | 1260
4 | O=C(NCc1ccnc(OC(F)F)c1)Nc1cccc(F)c1F [Example 247, 1-[[2-(difluoromethoxy)pyridin-4-yl]methyl]-3-(2,3-difluorophenyl)urea] | 53 | 90
5 | CC1CC(C)(C)CCC1NC(=O)NCc1ccnc(-n2ccnc2)c1 (centres unmarked) [Example 9, 1-[(2-imidazol-1-ylpyridin-4-yl)methyl]-3-(2,4,4-trimethylcyclohexyl)urea] | 53 | 700
6 | O=C(NCc1ccnc(OC(F)F)c1)N[C@@H]1C[C@@H]2[C@H](C1)C2(F)F [Example 169, 1-[[2-(difluoromethoxy)pyridin-4-yl]methyl]-3-[(1R,3s,5S)-6,6-difluoro-3-bicyclo[3.1.0]hexanyl]urea] | 69 | 340
7 | O=C(NCc1ccnc(OC(F)F)c1)NCC1(F)CCCC1 [Example 227, 1-[[2-(difluoromethoxy)pyridin-4-yl]methyl]-3-[(1-fluorocyclopentyl)methyl]urea] | 49 | 410
8 | O=C(NCc1ccnc(OC(F)F)c1)NC12CC(C1)C2 [Example 47, 1-(1-bicyclo[1.1.1]pentanyl)-3-[[2-(difluoromethoxy)pyridin-4-yl]methyl]urea] | 65 | 1510
9 | O=C(NCc1ccnc(OC(F)F)c1)Nc1cccc(Cl)c1 [Example 22, 1-(3-chlorophenyl)-3-[[2-(difluoromethoxy)pyridin-4-yl]methyl]urea] | 41 | 30
10 | O=C(NCc1ccnc(OC(F)F)c1)N[C@@H]1CCCC(F)(F)C1 [Example 149, 1-[(1R)-3,3-difluorocyclohexyl]-3-[[2-(difluoromethoxy)pyridin-4-yl]methyl]urea] | 43 | 240
11 | O=C(NCc1ccnc(OCC(F)(F)F)c1)NCC(O)C12CC(F)(C1)C2 (centres unmarked) [Example 290, 1-[2-(3-fluoro-1-bicyclo[1.1.1]pentanyl)-2-hydroxyethyl]-3-[[2-(2,2,2-trifluoroethoxy)pyridin-4-yl]methyl]urea] | 81 | 890
12 | O=C(NCc1cc(OC(F)F)ncn1)N[C@H]1C[C@H](C(F)(F)F)C1 [Example 282, 1-[[6-(difluoromethoxy)pyrimidin-4-yl]methyl]-3-[(1r,3r)-3-(trifluoromethyl)cyclobutyl]urea] | 78 | 90
13 | O=C(NCc1ccnc(OC(F)F)c1)NCC1CC(F)(F)C1 [Example 181, 1-[(3,3-difluorocyclobutyl)methyl]-3-[[2-(difluoromethoxy)pyridin-4-yl]methyl]urea] | 41 | 660
14 | O=C(NCc1ccnc(OC(F)F)c1)NC1CCOC(C(F)(F)F)C1 (centres unmarked) [Example 226, 1-[[2-(difluoromethoxy)pyridin-4-yl]methyl]-3-[2-(trifluoromethyl)oxan-4-yl]urea] | 40 | 2450
15 | O=C(NCc1ccnc(OC(F)F)c1)NC(C1CC1)C1CC1 [Example 253, 1-(dicyclo-propylmethyl)-3-[[2-(difluoromethoxy)pyridin-4-yl]methyl]urea] | 70 | 320

Continued, values first:

Row | Emax [%] | EC50 [nM] | SMILES
16 | 54 | 160 | O=C(NCc1ccnc(OC(F)F)c1)NC12CCC(F)(CC1)CC2 [Example 48, 1-[[2-(difluoromethoxy)pyridin-4-yl]methyl]-3-(4-fluoro-1-bicyclo[2.2.2]octanyl)urea]
17 | 54 | 2420 | O=C(NCc1ccnc(-n2cccn2)c1)N[C@@H]1CCOc2ccccc21 [Example 1, 1-[(4R)-3,4-dihydro-2H-chromen-4-yl]-3-[(2-pyrazol-1-ylpyridin-4-yl)methyl]urea]
18 | 48 | 380 | O=C(NCc1ccnc(OC(F)F)c1F)N[C@H]1C[C@H](C(F)(F)F)C1 [Example 219, 1-[[2-(difluoromethoxy)-3-fluoropyridin-4-yl]methyl]-3-[(1r,3r)-3-(trifluoromethyl)cyclobutyl]urea]
19 | 60 | 610 | CC(F)(F)c1cc(CNC(=O)N[C@H]2C[C@H](C(F)(F)F)C2)ccn1 [Example 57, 1-[[2-(1,1-difluoroethyl)pyridin-4-yl]methyl]-3-[(1r,3r)-3-(trifluoromethyl)cyclobutyl]urea]
20 | 64 | 180 | O=C(Nc1cccc(Cl)c1)NC(CO)c1ccnc(OCC(F)(F)F)c1 (centres unmarked) [Example 92, 1-(3-chlorophenyl)-3-[2-hydroxy-1-[2-(2,2,2-trifluoroethoxy)pyridin-4-yl]ethyl]urea]
21 | 43 | 440 | CC(F)COc1cc(CNC(=O)NC23CCC(F)(CC2)CC3)ccn1 (centres unmarked) [Example 88, 1-(4-fluoro-1-bicyclo[2.2.2]octanyl)-3-[[2-(2-fluoropropoxy)pyridin-4-yl]methyl]urea]
22 | 85 | 7220 | O=C(NCc1ccnc(OC(F)F)c1)Nc1nccc(Cl)n1 [Example 96, 1-(4-chloropyrimidin-2-yl)-3-[[2-(difluoromethoxy)pyridin-4-yl]methyl]urea]
23 | 42 | 340 | O=C(NCc1ccnc(C(F)(F)F)c1)N[C@H]1C[C@H](C(F)(F)F)C1 [Example 58, 1-[(1r,3r)-3-(trifluoromethyl)cyclobutyl]-3-[[2-(trifluoromethyl)pyridin-4-yl]methyl]urea]
24 | 50 | 380 | O=C(NCc1ccnc(OCC(F)(F)F)c1)NC1CC(F)(F)C1 [Example 157, 1-(3,3-difluorocyclobutyl)-3-[[2-(2,2,2-trifluoroethoxy)pyridin-4-yl]methyl]urea]
25 | 74 | 130 | O=C(NCc1ccnc(OC(F)F)c1)N[C@H]1C[C@@H]2[C@H](C1)C2(F)F [Example 189, 1-[[2-(difluoromethoxy)pyridin-4-yl]methyl]-3-[(1R,3r,5S)-6,6-difluoro-3-bicyclo[3.1.0]hexanyl]urea]
26 | 48 | 360 | O=C(NCc1ccnc(OC(F)F)c1)NC1(C2CC(F)(F)C2)CC1 [Example 171, 1-[1-(3,3-difluorocyclobutyl)cyclopropyl]-3-[[2-(difluoromethoxy)pyridin-4-yl]methyl]urea]
27 | 66 | 250 | N#CCOc1cc(CNC(=O)N[C@H]2C[C@H](C(F)(F)F)C2)ccn1 [Example 63, 1-[[2-(cyanomethoxy)pyridin-4-yl]methyl]-3-[(1r,3r)-3-(trifluoromethyl)cyclobutyl]urea]
28 | 78 | 380 | O=C(NCc1ccnc(-n2cccn2)c1)N[C@H]1C[C@@H]2CC[C@H]1C2 [Example 15, 1-[(1S,2S,4R)-2-bicyclo[2.2.1]heptanyl]-3-[(2-pyrazol-1-ylpyridin-4-yl)methyl]urea]
29 | 48 | 220 | O=C(NCc1ccnc(OC(F)F)c1)N[C@@H]1CC[C@H](C(F)F)C1 (racemic) [Example 193, 1-[[2-(difluoromethoxy)pyridin-4-yl]methyl]-3-[rac-(1R,3S)-3-(difluoromethyl)cyclopentyl]urea]
30 | 40 | 1010 | O=C(NCc1ccnc(OCC(F)(F)F)c1)NC1(C2CC(F)(F)C2)CC1 [Example 254, 1-[1-(3,3-difluorocyclobutyl)cyclopropyl]-3-[[2-(2,2,2-trifluoroethoxy)pyridin-4-yl]methyl]urea]
31 | 48 | 20 | O=C(NCc1ccnc(OCC(F)(F)F)c1)N[C@H]1C[C@H](C(F)(F)F)C1 [Example 179, 1-[[2-(2,2,2-trifluoroethoxy)pyridin-4-yl]methyl]-3-[(1r,3r)-3-(trifluoromethyl)cyclobutyl]urea]
32 | 73 | 1360 | CC1(C)C[C@H](NC(=O)NCc2ccnc(OC(F)F)c2)[C@@H]1O (racemic) [Example 81, 1-[[2-(difluoromethoxy)pyridin-4-yl]methyl]-3-[rac-(1R,2S)-2-hydroxy-3,3-dimethylcyclobutyl]urea]
33 | 72 | 1200 | CC1(C)CC[C@H](O)[C@@H](NC(=O)NCc2ccnc(OC(F)F)c2)C1 (racemic) [Example 101, 1-[[2-(difluoromethoxy)pyridin-4-yl]methyl]-3-[rac-(1R,2R)-2-hydroxy-5,5-dimethylcyclohexyl]urea]
34 | 61 | 320 | O=C(NCc1ccnc(OC(F)F)c1)N[C@H]1CC[C@@H](C(F)(F)F)CC1 [Example 211, 1-[[2-(difluoromethoxy)pyridin-4-yl]methyl]-3-[(1s,4s)-4-(trifluoromethyl)cyclohexyl]urea]
35 | 43 | 550 | O=C(NCc1ccnc(OC(F)F)c1)N[C@H](C1CC1)C(F)(F)F [Example 134, 1-[(1R)-1-cyclopropyl-2,2,2-trifluoroethyl]-3-[[2-(difluoromethoxy)pyridin-4-yl]methyl]urea]
36 | 65 | 400 | O=C(NCc1ccnc(OC(F)F)c1)N[C@H]1C[C@@H](C(F)(F)F)C1 [Example 198, 1-[[2-(difluoromethoxy)pyridin-4-yl]methyl]-3-[(1s,3s)-3-(trifluoromethyl)cyclobutyl]urea]
37 | 55 | 1090 | O=C(NCc1ccnc(OC(F)F)c1)N[C@@H](C(F)F)C1CC(F)(F)C1 [Example 230, 1-[(1R)-1-(3,3-difluorocyclobutyl)-2,2-difluoroethyl]-3-[[2-(difluoromethoxy)pyridin-4-yl]methyl]urea]
